What follows are molecules tested against 5-HT2A receptor (Homo sapiens (Human), UniProt P28223) (assay: Radioligand binding assay ([3H]5-HT competition), 5-HT2A). Conditions: [3H]5-HT radioligand, membranes of HEK293 cells expressing recombinant 5-HT2A; Ki from IC50 by Cheng-Prusoff; read-out: 5-HT2A serotonin binding Ki value.
Experimental: Competition binding experiments consisted of addition of 5 μL of serially diluted test compound, 50 μL of radioligand stock diluted in Assay Buffer (20 mM HEPES, pH 7.4, 10 mM MgCl2), and 145 μL of diluted membrane expressing the receptor of interest to 96-well microtiter plates, which were then incubated for one hour at room temperature. Assay incubations were terminated by rapid filtration through Perkin Elmer GF/C filtration plates under vacuum pressure using a 96-well Packard filtration apparatus, followed by washing the filter plates several times with ice cold Assay Buffer. Plates were then dried at 45° C. for a minimum of four hours. Finally, 25 μL of BetaScint scintillation cocktail was added to each well and the plates were counted in a Packard TopCount scintillation counter. In each competition study, test compounds were assayed at 10 concentrations with three replicates at each test concentration. Dose-response curves were constructed to determine IC50 values and these were converted to corresponding Ki values using the Cheng-Prusoff equation.

Sequence of 5-HT2A receptor (P28223 whole entry): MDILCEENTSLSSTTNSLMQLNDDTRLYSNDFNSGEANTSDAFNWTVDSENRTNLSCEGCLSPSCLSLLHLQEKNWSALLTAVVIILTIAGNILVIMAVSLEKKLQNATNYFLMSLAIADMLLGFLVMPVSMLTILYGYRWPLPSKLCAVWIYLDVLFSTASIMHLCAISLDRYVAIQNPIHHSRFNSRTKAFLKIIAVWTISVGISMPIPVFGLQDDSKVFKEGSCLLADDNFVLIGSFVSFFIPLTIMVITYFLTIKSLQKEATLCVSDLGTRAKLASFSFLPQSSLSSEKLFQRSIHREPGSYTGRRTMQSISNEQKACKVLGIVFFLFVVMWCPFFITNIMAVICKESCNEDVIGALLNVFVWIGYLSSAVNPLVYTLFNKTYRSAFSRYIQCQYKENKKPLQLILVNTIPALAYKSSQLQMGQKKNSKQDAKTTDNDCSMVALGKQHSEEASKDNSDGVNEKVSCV

| Compound | Ki [nM] |
| --- | --- |
| Cc1noc(C)c1-c1cc(NC(=O)C2CC2)ccc1OCCN1CCN2C(=O)CCC2C1 (stereo not shown) [Compound 138, N-(3-(3,5-dimethylisoxazol-4-yl)-4-(2-(6-oxohexahydropyrrolo[1,2-a]pyrazin-2(1H)-yl)ethoxy)phenyl)cyclopropanecarboxamide] | 24.6 |
| COc1ccc(CC(=O)Nc2ccc(OC[C@H]3CCCCN3)c(-c3c(C)noc3C)c2)cc1 [Compound 224, (R)—N-(3-(3,5-dimethylisoxazol-4-yl)-4-(piperidin-2-ylmethoxy)phenyl)-2-(4-methoxyphenyl)acetamide] | 1.53 |
| Cc1noc(C)c1-c1cc(NC(=O)C2CC2)ccc1OCCN1CC2(COC2)C1 [Compound 155, N-[3-(3,5-dimethylisoxazol-4-yl)-4-[2-(2-oxa-6-azaspiro[3.3]heptan-6-yl)ethoxy]phenyl]cyclopropanecarboxamide] | 22 |
| Cc1noc(C)c1-c1cc(NC(=O)[C@H]2C[C@H]2F)ccc1OCCN1CCCC1 [Compound 107, (1R,2R)—N-(3-(3,5-dimethylisoxazol-4-yl)-4-(2-(pyrrolidin-1-yl)ethoxy)phenyl)-2-fluorocyclopropane-1-carboxamide] | 15.1 |
| Cc1noc(C)c1-c1cc(NC(=O)c2ccnn2C)ccc1OC[C@H]1CCCCN1 [Compound 177, N-[3-(3,5-dimethylisoxazol-4-yl)-4-[[(2R)-2-piperidyl]methoxy]phenyl]-2-methyl-pyridinerazole-3-carboxamide] | 4.22 |
| Cc1cnsc1C(=O)Nc1ccc(OC[C@H]2CCCCN2)c(-c2c(C)noc2C)c1 [Compound 214, (R)—N-(3-(3,5-dimethylisoxazol-4-yl)-4-(piperidin-2-ylmethoxy)phenyl)-4-methylisothiazole-5-carboxamide] | 3.05 |
| Cc1noc(C)c1-c1cc(NC(=O)C(C)(C)F)ccc1OC[C@H]1CCCCN1 [Compound 199, N-[3-(3,5-dimethylisoxazol-4-yl)-4-[[(2R)-2-piperidyl]methoxy]phenyl]-2-fluoro-2-methyl-propanamide] | 35.6 |
| Cc1noc(C)c1-c1cc(NC(=O)c2cc(F)ccn2)ccc1OCCN1CCCC1 [Compound 104, N-(3-(3,5-dimethylisoxazol-4-yl)-4-(2-(pyrrolidin-1-yl)ethoxy)phenyl)-4-fluoropicolinamide] | 19.6 |
| Cc1ncoc1C(=O)Nc1ccc(OCCN2CCCC2)c(-c2c(C)noc2C)c1 [Compound 112, N-(3-(3,5-dimethylisoxazol-4-yl)-4-(2-(pyrrolidin-1-yl)ethoxy)phenyl)-4-methyloxazole-5-carboxamide] | 14.1 |
| Cc1noc(C)c1-c1cc(NC(=O)c2c(F)cnn2C)ccc1OCCN1CCOCC1 [Compound 134, N-[3-(3,5-dimethylisoxazol-4-yl)-4-(2-morpholinoethoxy)phenyl]-4-fluoro-2-methyl-pyrazole-3-carboxamide] | 5.86 |
| Cc1nc(C(=O)Nc2ccc(OC[C@H]3CCCCN3)c(-c3c(C)noc3C)c2)c(C)o1 [Compound 216, (R)—N-(3-(3,5-dimethylisoxazol-4-yl)-4-(piperidin-2-ylmethoxy)phenyl)-2,5-dimethyloxazole-4-carboxamide] | 298 |
| Cc1noc(C)c1-c1cc(NC(=O)C(F)c2ccccc2)ccc1OC[C@H]1CCCCN1 (stereo partly drawn) [Compound 206, N-(3-(3,5-dimethylisoxazol-4-yl)-4-(((R)-piperidin-2-yl)methoxy)phenyl)-2-fluoro-2-phenylacetamide] | 3.4 |
| Cc1noc(C)c1-c1cc(NC(=O)C2CC2)ccc1O[C@H]1CCNC1 [Compound 180, (S)—N-(3-(3,5-dimethylisoxazol-4-yl)-4-(pyrrolidin-3-yloxy)phenyl)cyclopropanecarboxamide] | 186 |
| COC1CCN(CCOc2ccc(NC(=O)C3CC3)cc2-c2c(C)noc2C)CC1 [Compound 143, N-(3-(3,5-dimethylisoxazol-4-yl)-4-(2-(4-methoxypiperidin-1-yl)ethoxy)phenyl)cyclopropanecarboxamide] | 84 |
| CCc1cc(C(=O)Nc2ccc(OC[C@H]3CCCCN3)c(-c3c(C)noc3C)c2)n(C)n1 [Compound 209, (R)—N-(3-(3,5-dimethylisoxazol-4-yl)-4-(piperidin-2-ylmethoxy)phenyl)-3-ethyl-1-methyl-1H-pyrazole-5-carboxamide] | 36.3 |
| Cc1noc(C)c1-c1cc(NC(=O)C2CC2)ccc1OC[C@@H]1CCCCN1 [Compound 170, (S)—N-(3-(3,5-dimethylisoxazol-4-yl)-4-(piperidin-2-ylmethoxy)phenyl)cyclopropanecarboxamide] | 49.6 |
| Cc1nc(C)c(C(=O)Nc2ccc(OC[C@H]3CCCCN3)c(-c3c(C)noc3C)c2)o1 [Compound 207, (R)—N-(3-(3,5-dimethylisoxazol-4-yl)-4-(piperidin-2-ylmethoxy)phenyl)-2,4-dimethyloxazole-5-carboxamide] | 235 |

| Compound | Ki [nM] |
| --- | --- |
| Cc1noc(C)c1-c1cc(NC(=O)C2CC2)ccc1OCCN1[C@@H]2COC[C@H]1C2 [Compound 159, N-[3-(3,5-dimethylisoxazol-4-yl)-4-[2-[(1R,5S)-3-oxa-6-azabicyclo[3.1.1]heptan-6-yl]ethoxy]phenyl]cyclopropanecarboxamide] | 1.61 |
| Cc1noc(C)c1-c1cc(NC(=O)C2(CF)CC2)ccc1OC[C@H]1CCCCN1 [Compound 200, (R)—N-(3-(3,5-dimethylisoxazol-4-yl)-4-(piperidin-2-ylmethoxy)phenyl)-1-(fluoromethyl)cyclopropane-1-carboxamide] | 9.08 |
| Cc1noc(C)c1-c1cc(NC(=O)c2ncoc2C)ccc1OC[C@H]1CCCCN1 [Compound 185, (R)—N-(3-(3,5-dimethylisoxazol-4-yl)-4-(piperidin-2-ylmethoxy)phenyl)-5-methyloxazole-4-carboxamide] | 8.77 |
| CCOCCC(=O)Nc1ccc(OCCN2CCCC2)c(-c2c(C)noc2C)c1 [Compound 101, N-(3-(3,5-dimethylisoxazol-4-yl)-4-(2-(pyrrolidin-1-yl)ethoxy)phenyl)-3-ethoxypropanamide] | 78.3 |
| CCN1CC(Oc2ccc(NC(=O)C3CC3)cc2-c2c(C)noc2C)C1 [Compound 133, N-(3-(3,5-dimethylisoxazol-4-yl)-4-((1-ethylazetidin-3-yl)oxy)phenyl)cyclopropanecarboxamide] | 51.3 |
| Cc1noc(C)c1-c1cc(NC(=O)C2CC2)ccc1OC[C@H]1CCCN1 [Compound 175, (R)—N-(3-(3,5-dimethylisoxazol-4-yl)-4-(pyrrolidin-2-ylmethoxy)phenyl)cyclopropanecarboxamide] | 41.6 |
| Cc1noc(C)c1-c1cc(NC(=O)[C@@H]2C[C@@H]2F)ccc1OCCN1CCCC1 [Compound 108, (1S,2S)—N-(3-(3,5-dimethylisoxazol-4-yl)-4-(2-(pyrrolidin-1-yl)ethoxy)phenyl)-2-fluorocyclopropane-1-carboxamide] | 6.21 |
| Cc1noc(C)c1-c1cc(NC(=O)c2ccccc2)ccc1OCCN1CCC1 [Compound 120, N-(4-(2-(azetidin-1-yl)ethoxy)-3-(3,5-dimethylisoxazol-4-yl)phenyl)benzamide] | 9.41 |
| Cc1nnsc1C(=O)Nc1ccc(OC[C@H]2CCCCN2)c(-c2c(C)noc2C)c1 [Compound 215, (R)—N-(3-(3,5-dimethylisoxazol-4-yl)-4-(piperidin-2-ylmethoxy)phenyl)-4-methyl-1,2,3-thiadiazole-5-carboxamide] | 18.4 |
| Cc1noc(C)c1-c1cc(NC(=O)c2ccnn2C)ccc1OCCN1CCCC1 [Compound 116, N-[3-(3,5-dimethylisoxazol-4-yl)-4-(2-pyrrolidin-1-ylethoxy)phenyl]-2-methyl-pyrazole-3-carboxamide] | 6.15 |
| CCOC1CC1C(=O)Nc1ccc(OCCN2CCCC2)c(-c2c(C)noc2C)c1 (stereo not shown) [Compound 115, N-(3-(3,5-dimethylisoxazol-4-yl)-4-(2-(pyrrolidin-1-yl)ethoxy)phenyl)-2-ethoxycyclopropane-1-carboxamide] | 8.52 |
| Cc1noc(C)c1-c1cc(NC(=O)C2CC2)ccc1O[C@H]1CCCNC1 [Compound 178, N-[3-(3,5-dimethylisoxazol-4-yl)-4-[[(3S)-3-piperidyl]oxy]phenyl]cyclopropanecarboxamide] | 718 |
| Cc1noc(C)c1-c1cc(NC(=O)C2CC2)ccc1OC[C@H]1COCCN1 [Compound 173, (R)—N-(3-(3,5-dimethylisoxazol-4-yl)-4-(morpholin-3-ylmethoxy)phenyl)cyclopropanecarboxamide] | 96.9 |
| Cc1ncsc1CC(=O)Nc1ccc(OCCN2CCC2)c(-c2c(C)noc2C)c1 [Compound 127, N-(4-(2-(azetidin-1-yl)ethoxy)-3-(3,5-dimethylisoxazol-4-yl)phenyl)-2-(4-methylthiazol-5-yl)acetamide] | 8.51 |
| Cc1noc(C)c1-c1cc(NC(=O)c2ccnn2C)ccc1OCCN1CCC1 [Compound 118, N-(4-(2-(azetidin-1-yl)ethoxy)-3-(3,5-dimethylisoxazol-4-yl)phenyl)-1-methyl-1H-pyrazole-5-carboxamide] | 18.9 |
| Cc1noc(C)c1-c1cc(NC(=O)Cc2nccs2)ccc1OC[C@H]1CCCCN1 [Compound 213, (R)—N-(3-(3,5-dimethylisoxazol-4-yl)-4-(piperidin-2-ylmethoxy)phenyl)-2-(thiazol-2-yl)acetamide] | 4.73 |
| Cc1noc(C)c1-c1cc(NC(=O)C2CC2)ccc1OCCN1C[C@H]2C[C@H]2C1 [Compound 164, N-[4-[2-[(1R,5S)-3-azabicyclo[3.1.0]hexan-3-yl]ethoxy]-3-(3,5-dimethylisoxazol-4-yl)phenyl]cyclopropanecarboxamide] | 13.8 |

From patent US20240376090A1, “ISOXAZOLE DERIVATIVES AS MODULATORS OF THE 5-HT2A SEROTONIN RECEPTOR USEFUL FOR THE TREATMENT OF DISORDERED RELATED THERETO” (Arena Pharmaceuticals, Inc., priority 2020, published 2024)
